# Measurements as given in patent publication US20040259948A1, “Reciprocal regulation of inflammation and lipid metabolism by liver X receptors” (priority 2003, published 2004).
# How the values were obtained:
# [1] = tested on: Thioglycolate-elicited murine peritoneal macrophages; assay: LPS-stimulated macrophages: NO production, iNOS and ABCA1 mRNA; assay type: cell-based
# Protocol: To investigate the role of LXRs in host defense, the influence of LXR agonists on macrophage responses to bacterial pathogens was tested. Thioglycolate-elicited peritoneal macrophages were infected in vitro with Escherichia coli. After 18 hours, expression of inducible nitric oxide synthase (iNOS) mRNA and nitric oxide (NO) production were assessed. […] This repression occurs over the same concentration range needed to induce the established LXR target gene ATP-binding cassette transporter A1 (ABCA1). A, LXR agonist inhibits nitrite production in response to bacterial infection. […] Cells were then infected with E. coli (A, B) or treated with 100 ng/ml LPS(C, D, E) as indicated. After 18 h, NO production was determined using a colorimetric assay (A, D), or mRNA levels were determined using real-time quantitative PCR assays (B, C, E). […] The inhibitory effect of LXR agonists on iNOS expression was dose-dependent and occurred over the same range of concentration as that required to induce ATP-binding cassette transporter A1 (ABCA1) (FIGS. 1D and E).
# The anti-inflammatory activity of LXR ligands can be separated from the induction of lipid metabolism genes such as ABCA1. Murine peritoneal macrophages were treated with LPS to induce iNOS gene expression (FIG. 8A) and were assayed for ABCA1 mRNA by real time qPCR (FIG. 8B). NOx production was measured by colorimetric assay. […] The identification of LXR agonists with only anti-inflammatory activity should greatly increase the usefulness of such compounds as therapeutic agents, because they lack the unwanted side effects on lipid metabolism such as elevation of triglyceride levels.
# Cell culture and transfections. Thioglycolate-elicited peritoneal macrophages were cultured in RPMI containing 10% fetal bovine serum (FBS). RAW 264.7 cells were cultured in DMEM containing 10% FBS. For ligand treatments, cells were in cultured medium supplemented with 5% lipoprotein-deficient serum (LPDS) and ligands for 18 h before stimulation. Bacterial infection in vitro was performed as described (Chen, L. M. et al. 1996 Mol Microbiol 21:1101-1115). Transient transfections of RAW 264.7 cells were performed in triplicate in 48-well plates using Superfect reagent (Life Technologies). After transfection, cells were incubated in medium containing 10% LPDS and the indicated ligands for 18 h before stimulation with LPS for an additional 18 h. Luciferase activity was normalized to β-galactosidase activity. NO production was determined spectrophotometrically (Castrillo, A. et al. 2000 Mol Cell Biol 20:1692-1698).
# RNA and protein analysis. Total RNA was extracted using Trizol reagent (Life Technologies, Inc.). Northern blot analysis was carried out as described using radiolabeled cDNA probes (Tontonoz, P. et al. 1998 Cell 93:241-252). Real-time quantitative PCR (TaqMan) analysis was performed using an Applied Biosystems 7700 sequence detector. Two-step real-time PCR was performed as described (Joseph, S. B. et al. 2002 J Biol Chem 277:11019-11025). The primers and probes used are as follows: […]
# C57B1/6 mice = assay: Murine model of irritant contact dermatitis (TPA-treated ear); assay type: in vivo; conditions: topical 20 μl of 10 mM at 45 min and 4 h post-TPA; 18 h; relative to vehicle-treated ear
# Protocol: The effects of LXR ligands in both acute and chronic inflammatory contexts were evaluated. First, the effects of LXR agonists in a murine model of irritant contact dermatitis (Sheu, M. Y. et al. 2002 J Invest Dermatol 118:94-101) were studied. Ears of C57B1/6 mice (n=5 per group) were treated topically with 12-O-tetradecanoylphorbol-13-acetate (TPA) (left ear) or with vehicle (right ear). […] Thickness and weight of 6-mm punch biopsies were determined for each group after 18 h TPA treatment and are presented relative to vehicle-treated ear. […] Analysis of hematoxylin and eosin (H&E) stained sections of the TPA-treated ears confirmed a reduction in edema and inflammatory infiltrate by LXR agonist. Thus, two structurally unrelated LXR agonists have anti-inflammatory activity in a model of cutaneous inflammation.
# Animals. Mice on a mixed background (C57B1/6 and 129v) and Apoe^−/− mice on a C57B1/6 background were maintained on standard chow. […] Irritant contact dermatitis was induced as described (Sheu, M. Y. et al. 2002 J Invest Dermatol 118:94-101). Briefly, 10 μl of 0.03% 12-O-tetradecanoylphorbol-13-acetate (TPA) in acetone was applied to the left ears of male mice. The right ears were treated with vehicle alone. […] After 18 h of TPA treatment, the thickness and weight of 6-mm punch biopsies were determined. Statistical analysis was performed using Student's t-test. Experiments were conducted in accordance of the Animal Research Committee of the University of California, Los Angeles.
# [2] = tested on: human peripheral blood mononuclear cells; assay: TNF-induced gene expression in human peripheral blood mononuclear cells; assay type: cell-based; conditions: TNF 6 hours; real time qPCR
# Protocol: Activation of LXR by synthetic ligands inhibits inflammatory gene expression in multiple human cell types (FIG. 7A-C). TNFα plays a role in the induction of inflammatory mediators in during inflammation. Cells were treated for 6 hours with TNF as indicated and gene expression was measured by real time qPCR.
# [3] = 100 ng/ml LPS, 18 h, real-time quantitative PCR, FIG. 1E
structure (smiles),measurement,setting,value
O=C(O)Cc1cccc(OCCCN(Cc2cccc(C(F)(F)F)c2Cl)CC(c2ccccc2)c2ccccc2)c1 [GW3965],"nitrite production, dose response","[1]; 100 ng/ml LPS, 18 h, colorimetric assay, FIG. 1D",Dose-dependent inhibition
same,"ABCA1 mRNA expression, dose response",[1]; [3],Reciprocal dose-dependent regulation
same,"iNOS mRNA expression, dose response",[1]; [3],Reciprocal dose-dependent regulation
same,"inhibition of inflammatory genes (NOx production), T1317 compared with GW3965","[1]; LPS, increasing doses, colorimetric assay, FIG. 8A",more effective inhibitor
same,ear thickness,C57B1/6 mice,reduced
same,ear weight (6-mm punch biopsies),C57B1/6 mice,reduced
same,TNF-induced gene expression,[2],inhibited
